Experimental findings from US7977322B2 (Vertex Pharmaceuticals Incorporated, priority 2004, dated 2011) are described below.

The target of the test is T1, ΔF508-CFTR (Homo sapiens, UniProt P13569, DEL508-508).
T1 construct: expressed in transfected cells
Description: Membrane potential optical (FRET/VIPR) assay, identification of correction compounds. It is filed as cell-based. The note with it: Table 3, assay not given; for Emax: read-out: % Activity / % Efficacy (relative efficacy). The procedure, abridged: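 NIH3T3 mouse fibroblasts stably expressing ΔF508-CFTR were exposed to compound for 16 h at 37° C in serum-free medium, then loaded with DiSBAC2(3)/CC2-DMPE. After addition of 10 μM forskolin plus 20 μM genistein in Cl⁻-free gluconate bath (pH 7.4), depolarization from Cl⁻ efflux was read by FRET (VIPR II).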

A value given as a limit tells only on which side of the number the result lay.

T1 sequence (P13569 with tags, fused parts or gaps DEL508-508): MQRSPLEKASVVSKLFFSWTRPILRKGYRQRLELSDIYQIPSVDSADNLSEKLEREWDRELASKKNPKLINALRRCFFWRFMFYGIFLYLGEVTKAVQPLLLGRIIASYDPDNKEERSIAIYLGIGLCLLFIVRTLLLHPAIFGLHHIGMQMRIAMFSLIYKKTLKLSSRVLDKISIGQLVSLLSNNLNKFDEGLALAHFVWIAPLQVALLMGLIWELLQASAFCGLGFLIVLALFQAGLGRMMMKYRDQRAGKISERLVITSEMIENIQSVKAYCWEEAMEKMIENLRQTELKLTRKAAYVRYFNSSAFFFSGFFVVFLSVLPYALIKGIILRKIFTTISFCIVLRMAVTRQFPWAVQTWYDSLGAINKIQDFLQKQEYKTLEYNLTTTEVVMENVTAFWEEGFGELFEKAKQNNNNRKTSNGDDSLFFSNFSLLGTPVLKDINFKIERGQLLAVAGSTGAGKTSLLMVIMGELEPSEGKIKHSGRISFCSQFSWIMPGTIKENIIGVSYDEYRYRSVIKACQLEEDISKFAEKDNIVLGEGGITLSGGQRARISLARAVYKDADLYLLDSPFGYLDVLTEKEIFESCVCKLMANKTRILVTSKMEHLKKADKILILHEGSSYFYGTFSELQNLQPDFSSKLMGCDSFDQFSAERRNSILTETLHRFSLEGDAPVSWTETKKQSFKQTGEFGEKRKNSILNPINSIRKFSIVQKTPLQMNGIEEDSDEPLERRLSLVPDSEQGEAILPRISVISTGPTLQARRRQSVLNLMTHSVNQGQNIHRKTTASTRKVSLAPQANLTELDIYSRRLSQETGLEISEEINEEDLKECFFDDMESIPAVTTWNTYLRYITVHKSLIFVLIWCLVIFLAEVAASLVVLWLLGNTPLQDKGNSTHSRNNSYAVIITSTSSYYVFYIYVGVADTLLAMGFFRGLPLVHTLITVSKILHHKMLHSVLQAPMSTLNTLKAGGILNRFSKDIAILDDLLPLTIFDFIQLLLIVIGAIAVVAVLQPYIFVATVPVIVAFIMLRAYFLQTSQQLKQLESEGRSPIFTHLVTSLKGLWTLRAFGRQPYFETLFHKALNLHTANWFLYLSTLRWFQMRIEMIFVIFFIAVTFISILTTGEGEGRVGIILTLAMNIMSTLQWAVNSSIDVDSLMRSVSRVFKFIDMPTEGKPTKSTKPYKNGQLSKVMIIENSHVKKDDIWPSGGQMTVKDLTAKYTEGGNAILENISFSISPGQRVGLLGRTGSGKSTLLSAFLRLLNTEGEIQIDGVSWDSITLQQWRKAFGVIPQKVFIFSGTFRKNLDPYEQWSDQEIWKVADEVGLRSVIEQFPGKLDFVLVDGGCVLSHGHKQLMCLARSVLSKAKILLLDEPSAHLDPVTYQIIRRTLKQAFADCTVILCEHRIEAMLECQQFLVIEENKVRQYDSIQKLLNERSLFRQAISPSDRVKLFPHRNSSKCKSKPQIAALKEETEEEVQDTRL

For `O=C(Nc1ncc(Cc2ccncc2Cl)s1)C1(c2ccc3c(c2)OCO3)CC1` [Example 265], the “% Activity / % Efficacy (relative efficacy)” value is reported as “+++ (“+++” means>100%)” and the EC50 is less than 10 µM.
Take `COc1cccnc1Cc1cnc(NC(=O)C2(c3ccc4c(c3)OCO4)CC2)s1` [Example 266]: the “% Activity / % Efficacy (relative efficacy)” value was “+++ (“+++” means>100%)” and the EC50 was less than 10 µM.
Turning to `O=C(Nc1cnc(Cc2ccccc2Cl)s1)C1(c2ccc3c(c2)OCO3)CC1` [Example 267], the EC50 is less than 10 µM and the Emax is more than 100%.
Turning to `COc1ccc(C2(C(=O)Nc3cnc(Cc4ccccc4Cl)s3)CC2)cc1` [Example 270], the “% Activity / % Efficacy (relative efficacy)” value is “++ (“++” means between 25% to 100%)” and the EC50 was less than 10 µM.
For `COCCOC(c1cnc(NC(=O)C2(c3ccc4c(c3)OCO4)CC2)s1)c1ccccc1Cl` (stereo not shown) [Example 273], the EC50 was less than 10 µM and the Emax was more than 100%.
Consider `O=C(Nc1ncc(C(OCCCCO)c2ccccc2Cl)s1)C1(c2ccc3c(c2)OCO3)CC1` (stereo not shown) [Example 275], for which the “% Activity / % Efficacy (relative efficacy)” value was “+ (“+” means<25%)” and the EC50 was less than 10 µM.
In the same order, the values of `CCN(C)CCOC(c1cnc(NC(=O)C2(c3ccc4c(c3)OCO4)CC2)s1)c1ccccc1Cl` (stereo not shown) [Example 276] are “++ (“++” means between 25% to 100%)” and less than 10 µM.
In the same order, the values of `O=C(Nc1ncc(C(OCCCCN2CCC(O)CC2)c2ccccc2Cl)s1)C1(c2ccc3c(c2)OCO3)CC1` (stereo not shown) [Example 279] are “+++ (“+++” means>100%)” and less than 10 µM.
As to `COc1ccc(C2(C(=O)Nc3ncc(Cc4ccccc4C)s3)CC2)cc1` [Example 280], the “% Activity / % Efficacy (relative efficacy)” value is given as “+++ (“+++” means>100%)” and the EC50 was less than 10 µM.
Turning to `Cc1ccccc1Cc1cnc(NC(=O)C2(c3ccc4c(c3)OCO4)CC2)s1` [Example 281], the “% Activity / % Efficacy (relative efficacy)” value was “+++ (“+++” means>100%)” and the EC50 was less than 10 µM.
For `COc1ccc(C2(C(=O)Nc3ncc(Cc4ccc(F)cc4C)s3)CC2)cc1` [Example 282], the “% Activity / % Efficacy (relative efficacy)” value is given as “++ (“++” means between 25% to 100%)” and the EC50 is less than 10 µM.
In the same order, the values of `Cc1cc(F)ccc1Cc1cnc(NC(=O)C2(c3ccc4c(c3)OCO4)CC2)s1` [Example 283] are “++ (“++” means between 25% to 100%)” and less than 10 µM.
With `O=C(Nc1nn(-c2ccccc2)cc1-c1cccs1)C1(c2ccc3c(c2)OCO3)CC1` [Example 286], the EC50 fell in the range of 10 to 25 µM and the Emax was in the range of 25 to 100%.
In the same order, the values of `Cn1nc(-c2ccc(Cl)c(Cl)c2)cc1NC(=O)C1(c2ccc3c(c2)OCO3)CC1` [Example 287] are less than 10 µM and more than 100%.
In the same order, the values of `Cc1csc(NC(=O)C2(c3ccc4c(c3)OCO4)CC2)c1C(N)=O` [Example 289] are less than 10 µM and 25 to 100%.
In the case of `CC(C)(C)c1cc(NC(=O)C2(c3ccc4c(c3)OCO4)CC2)c(C(N)=O)s1` [Example 290], the EC50 is less than 10 µM and the Emax was 25 to 100%.
Turning to `Cc1nn(-c2ccccc2)c(NC(=O)C2(c3ccc4c(c3)OCO4)CC2)c1-c1ccccc1` [Example 291], the EC50 lay in the range of 10 to 25 µM and the Emax was 25 to 100%.
In the same order, the values of `COc1nonc1NC(=O)C1(c2ccc3c(c2)OCO3)CC1` [Example 292] are 10 to 25 µM and 25 to 100%.
On to `O=C(Nc1nnc(-c2ccccc2)s1)C1(c2ccc3c(c2)OCO3)CC1` [Example 293], for which the EC50 was in the range of 10 to 25 µM and the Emax lay in the range of 25 to 100%.
In the same order, the values of `CC1CCc2c(sc(NC(=O)C3(c4ccc5c(c4)OCO5)CC3)c2C#N)C1` (stereo not shown) [Example 296] are less than 10 µM and more than 100%.
Regarding `Cc1cc(NC(=O)C2(c3ccc4c(c3)OCO4)CC2)n(Cc2ccccc2)n1` [Example 297], the EC50 was 10 to 25 µM and the Emax lay in the range of 25 to 100%.
In the same order, the values of `O=C(Nc1ncc(-c2ccncc2)s1)C1(c2ccc3c(c2)OCO3)CC1` [Example 299] are 10 to 25 µM and 25 to 100%.
Take `CCC(c1ccccc1)c1nnc(NC(=O)C2(c3ccc4c(c3)OCO4)CC2)s1` (stereo not shown) [Example 301]: the EC50 was less than 10 µM and the Emax was more than 100%.
In the same order, the values of `Cn1nnc2cc(C3(C(=O)Nc4ncc(Cc5ccccc5Cl)s4)CC3)ccc21` [Example 304] are less than 10 µM and more than 100%.
In the same order, the values of `O=C(Nc1ncc(Cc2ccccc2Cl)s1)C1(c2cccc(F)c2)CCCCC1` [Example 305] are less than 10 µM and more than 100%.
For `O=C(Nc1ncc(Cc2ccccc2Cl)s1)C1(c2ccccc2F)CCCCC1` [Example 306], the EC50 is less than 10 µM and the Emax was more than 100%.
In the same order, the values of `O=C(Nc1ncc(Cc2ccccc2Cl)s1)C1(c2ccc(-n3cncn3)cc2)CC1` [Example 307] are less than 10 µM and more than 100%.
In the same order, the values of `CS(=O)(=O)Nc1cccc(C2(C(=O)Nc3ncc(Cc4ccccc4Cl)s3)CC2)c1` [Example 308] are less than 10 µM and 25 to 100%.
In the same order, the values of `CS(=O)(=O)c1ccc(C2(C(=O)Nc3ncc(Cc4ccccc4Cl)s3)CC2)cc1` [Example 309] are less than 10 µM and 25 to 100%.
As to `O=C(Nc1ncc(C(c2ccccc2Cl)N2CC[C@H](O)C2)s1)C1(c2ccc3c(c2)OCO3)CC1` (stereo partly shown) [Example 310], the EC50 is less than 10 µM and the Emax was more than 100%.
In the same order, the values of `O=C(Nc1ncc(C(c2ccccc2Cl)N2CCC(O)C2)s1)C1(c2ccc3c(c2)OCO3)CC1` (stereo not shown) [Example 311] are less than 10 µM and more than 100%.
In the same order, the values of `CN(C)CC(=O)Nc1ccc(C2(C(=O)Nc3ncc(Cc4ccccc4Cl)s3)CC2)cc1` [Example 312] are less than 10 µM and 25 to 100%.
Consider `O=C(Nc1ncc(Cc2ccccc2Cl)s1)C1(c2ccc(N3CCOCC3)cc2)CC1` [Example 313], for which the EC50 lay within 10 to 25 µM and the Emax lay in the range of 25 to 100%.
In the same order, the values of `CN1CCN(c2cccc(C3(C(=O)Nc4ncc(Cc5ccccc5Cl)s4)CC3)c2)CC1` [Example 314] are less than 10 µM and 25 to 100%.
In the case of `O=C(Nc1ncc(Cc2ccccc2Cl)s1)C1(c2cccc(N3CCOCC3)c2)CC1` [Example 315], the EC50 was less than 10 µM and the Emax was 25 to 100%.
On to `O=C(Nc1ncc(Cc2ccccc2Cl)s1)C1(c2cccc(O)c2)CC1` [Example 316], for which the EC50 was less than 10 µM and the Emax lay in the range of 25 to 100%.
Consider `O=C(Nc1ncc(Cc2ccccc2Cl)s1)C1(c2ccc(O)cc2)CC1` [Example 317], for which the EC50 is less than 10 µM and the Emax was in the range of 25 to 100%.
For `O=C(Nc1ncc(CN2CC[C@@H](O)C2)s1)C1(c2ccc3c(c2)OCO3)CC1` [Example 319], the EC50 lay within 10 to 25 µM and the Emax was 25 to 100%.
In the same order, the values of `O=C(Nc1ncc(CN2CC[C@H](O)C2)s1)C1(c2ccc3c(c2)OCO3)CC1` [Example 320] are 10 to 25 µM and more than 100%.
`CC(=O)O[C@@H]1CCN(C(c2cnc(NC(=O)C3(c4ccc5c(c4)OCO5)CC3)s2)c2ccccc2Cl)C1` (stereo partly shown) [Example 321]: the half-maximal effective concentration (EC50) was less than 10 µM and the Emax was more than 100%.
In the same order, the values of `O=C(Nc1ncc([C@@H](O)c2ccccc2Cl)s1)C1(c2ccc3c(c2)OCO3)CC1` [Example 322] are less than 10 µM and more than 100%.
In the same order, the values of `O=C(Nc1ncc([C@H](O)c2ccccc2Cl)s1)C1(c2ccc3c(c2)OCO3)CC1` [Example 323] are less than 10 µM and more than 100%.
In the same order, the values of `COCC1CCCN1C(c1ccc(Cl)cc1)c1cnc(NC(=O)C2(c3ccc4c(c3)OCO4)CC2)s1` (stereo not shown) [Example 331] are less than 10 µM and more than 100%.
On to `O=C(Nc1ncc(C(c2ccc(Cl)cc2)N2CC[C@@H](O)C2)s1)C1(c2ccc3c(c2)OCO3)CC1` (stereo partly shown) [Example 335], for which the EC50 was less than 10 µM and the Emax was more than 100%.
In the same order, the values of `O=C(Nc1ncc(C(c2cccc(Cl)c2)N2CC[C@@H](O)C2)s1)C1(c2ccc3c(c2)OCO3)CC1` (stereo partly shown) [Example 343] are less than 10 µM and more than 100%.
In the same order, the values of `COc1cccc(C(c2cnc(NC(=O)C3(c4ccc5c(c4)OCO5)CC3)s2)N2CCCCC2)c1` (stereo not shown) [Example 344] are less than 10 µM and 25 to 100%.
In the same order, the values of `COC[C@@H]1CCCN1C(c1cccc(OC)c1)c1cnc(NC(=O)C2(c3ccc4c(c3)OCO4)CC2)s1` (stereo partly shown) [Example 345] are less than 10 µM and 25 to 100%.
Turning to `COc1ccccc1C(c1cnc(NC(=O)C2(c3ccc4c(c3)OCO4)CC2)s1)N1CC[C@@H](O)C1` (stereo partly shown) [Example 346], the EC50 is 10 to 25 µM and the Emax was more than 100%.
In the same order, the values of `COC[C@@H]1CCCN1C(c1ccccc1)c1cnc(NC(=O)C2(c3ccc4c(c3)OCO4)CC2)s1` (stereo partly shown) [Example 347] are 10 to 25 µM and more than 100%.
In the same order, the values of `COc1ccccc1C(c1cnc(NC(=O)C2(c3ccc4c(c3)OCO4)CC2)s1)N1CCC(O)CC1` (stereo not shown) [Example 348] are 10 to 25 µM and more than 100%.
In the same order, the values of `COc1ccccc1C(c1cnc(NC(=O)C2(c3ccc4c(c3)OCO4)CC2)s1)N1CCCCC1` (stereo not shown) [Example 349] are less than 10 µM and more than 100%.
`COc1ccc(C(c2cnc(NC(=O)C3(c4ccc5c(c4)OCO5)CC3)s2)N(C)C)cc1` (stereo not shown) [Example 350]: the EC50 is less than 10 µM and the Emax is more than 100%.
With `O=C(Nc1ncc(C(c2ccccc2)N2CCC(O)CC2)s1)C1(c2ccc3c(c2)OCO3)CC1` (stereo not shown) [Example 351], the EC50 was 10 to 25 µM and the Emax was more than 100%.
